Source: ChEMBL document CHEMBL1201862, “PubChem BioAssay data set” (2004)
Active and inactive are the calls of the source.

Key:
Escherichia coli = assay: microbe, parasite or virus in culture
[1] = biological target: Voltage-gated inwardly rectifying potassium channel KCNH2 (Homo sapiens, UniProt Q12809); conditions: Potency;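 note: confirmatory quantitative high-throughput screen measuring inhibition of hERG channel activity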
CAAX prenyl protease 2 = CAAX prenyl protease 2 (Homo sapiens, UniProt Q9Y256); assay: inhibition of Ras-converting CAAX protease Rce1 – biochemical, yeast membranes, quenched-peptide fluorescence, cherry-pick, dose response (AID 588849)
Sequence of CAAX prenyl protease 2 (Q9Y256 whole entry): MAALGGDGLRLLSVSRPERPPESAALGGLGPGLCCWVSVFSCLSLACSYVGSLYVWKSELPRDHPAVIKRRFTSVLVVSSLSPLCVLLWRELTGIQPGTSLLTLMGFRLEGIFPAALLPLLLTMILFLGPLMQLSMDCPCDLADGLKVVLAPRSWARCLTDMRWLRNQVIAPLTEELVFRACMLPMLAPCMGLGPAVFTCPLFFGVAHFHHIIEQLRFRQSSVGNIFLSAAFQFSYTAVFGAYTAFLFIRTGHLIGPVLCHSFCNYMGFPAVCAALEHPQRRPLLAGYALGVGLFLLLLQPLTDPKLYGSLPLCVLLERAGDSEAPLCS

[2] = biological target: Delta-type opioid receptor (Homo sapiens, UniProt P41143); assay: Counterscreen for agonists of heterodimerization of the mu 1 (OPRM1) and delta 1 (OPRD1) opioid receptors: Luminescence-based cell-based high throughput dose response assay to identify agonists of OPRD1 homodimerization. [Related pubchem assays (depositor defined):AID504326, AID504355, AID504692, AID504904, AID504905]; type: functional
Sequence of Delta-type opioid receptor (P41143 whole entry): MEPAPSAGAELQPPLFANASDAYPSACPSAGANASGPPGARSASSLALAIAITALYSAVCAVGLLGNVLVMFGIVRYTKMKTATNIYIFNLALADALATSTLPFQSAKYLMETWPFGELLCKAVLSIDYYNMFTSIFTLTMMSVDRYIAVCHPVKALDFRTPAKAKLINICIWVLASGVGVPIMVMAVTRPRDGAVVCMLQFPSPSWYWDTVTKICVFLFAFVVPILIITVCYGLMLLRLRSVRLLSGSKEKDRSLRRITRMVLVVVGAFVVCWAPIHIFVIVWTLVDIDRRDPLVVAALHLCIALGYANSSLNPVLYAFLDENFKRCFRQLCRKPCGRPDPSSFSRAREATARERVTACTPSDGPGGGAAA

Mu-type opioid receptor = Mu-type opioid receptor (Homo sapiens, UniProt P35372); assay: Counterscreen for agonists of heterodimerization of the mu 1 (OPRM1) and delta 1 (OPRD1) opioid receptors: Luminescence-based cell-based high throughput dose response assay to identify agonists of OPRM1 homodimerization.; type: functional;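 note: U2OS cells expressing OPRM1 and beta-arrestin as split beta-galactosidase partners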
Sequence of Mu-type opioid receptor (P35372 whole entry): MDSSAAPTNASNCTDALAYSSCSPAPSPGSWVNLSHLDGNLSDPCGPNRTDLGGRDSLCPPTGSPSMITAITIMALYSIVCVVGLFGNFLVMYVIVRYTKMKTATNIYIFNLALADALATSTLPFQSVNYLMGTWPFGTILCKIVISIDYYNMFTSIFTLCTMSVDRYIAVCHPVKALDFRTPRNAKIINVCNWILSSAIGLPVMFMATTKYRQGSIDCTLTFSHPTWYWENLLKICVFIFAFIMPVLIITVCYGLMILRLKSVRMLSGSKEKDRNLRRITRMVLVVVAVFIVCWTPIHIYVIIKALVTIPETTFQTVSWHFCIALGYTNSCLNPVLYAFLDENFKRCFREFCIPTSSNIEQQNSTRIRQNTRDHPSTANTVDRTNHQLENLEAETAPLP

[3] = biological target: 5-hydroxytryptamine receptor 5A (Homo sapiens, UniProt P47898); assay: Counterscreen for agonists of OPRM1-OPRD1 heterodimerization: luminescence-based cell-based high throughput dose response assay to identify agonists of 5-hydroxytryptamine (serotonin) 5A receptor (HTR5A). [Related pubchem assays (depositor defined):AID504326, AID504355, AID504692, AID504904, AID504905]; type: functional
Sequence of 5-hydroxytryptamine receptor 5A (P47898 whole entry): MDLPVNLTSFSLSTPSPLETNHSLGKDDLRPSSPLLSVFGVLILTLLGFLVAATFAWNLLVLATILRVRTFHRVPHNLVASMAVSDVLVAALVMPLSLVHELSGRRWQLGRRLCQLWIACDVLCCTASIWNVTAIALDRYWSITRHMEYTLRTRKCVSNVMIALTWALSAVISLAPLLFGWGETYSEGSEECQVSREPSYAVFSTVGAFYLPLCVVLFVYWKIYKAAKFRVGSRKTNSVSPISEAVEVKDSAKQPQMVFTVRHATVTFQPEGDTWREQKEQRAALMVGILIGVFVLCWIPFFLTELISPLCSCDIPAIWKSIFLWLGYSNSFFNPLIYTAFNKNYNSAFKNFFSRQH

Sequence of Voltage-gated inwardly rectifying potassium channel KCNH2 (Q12809 whole entry): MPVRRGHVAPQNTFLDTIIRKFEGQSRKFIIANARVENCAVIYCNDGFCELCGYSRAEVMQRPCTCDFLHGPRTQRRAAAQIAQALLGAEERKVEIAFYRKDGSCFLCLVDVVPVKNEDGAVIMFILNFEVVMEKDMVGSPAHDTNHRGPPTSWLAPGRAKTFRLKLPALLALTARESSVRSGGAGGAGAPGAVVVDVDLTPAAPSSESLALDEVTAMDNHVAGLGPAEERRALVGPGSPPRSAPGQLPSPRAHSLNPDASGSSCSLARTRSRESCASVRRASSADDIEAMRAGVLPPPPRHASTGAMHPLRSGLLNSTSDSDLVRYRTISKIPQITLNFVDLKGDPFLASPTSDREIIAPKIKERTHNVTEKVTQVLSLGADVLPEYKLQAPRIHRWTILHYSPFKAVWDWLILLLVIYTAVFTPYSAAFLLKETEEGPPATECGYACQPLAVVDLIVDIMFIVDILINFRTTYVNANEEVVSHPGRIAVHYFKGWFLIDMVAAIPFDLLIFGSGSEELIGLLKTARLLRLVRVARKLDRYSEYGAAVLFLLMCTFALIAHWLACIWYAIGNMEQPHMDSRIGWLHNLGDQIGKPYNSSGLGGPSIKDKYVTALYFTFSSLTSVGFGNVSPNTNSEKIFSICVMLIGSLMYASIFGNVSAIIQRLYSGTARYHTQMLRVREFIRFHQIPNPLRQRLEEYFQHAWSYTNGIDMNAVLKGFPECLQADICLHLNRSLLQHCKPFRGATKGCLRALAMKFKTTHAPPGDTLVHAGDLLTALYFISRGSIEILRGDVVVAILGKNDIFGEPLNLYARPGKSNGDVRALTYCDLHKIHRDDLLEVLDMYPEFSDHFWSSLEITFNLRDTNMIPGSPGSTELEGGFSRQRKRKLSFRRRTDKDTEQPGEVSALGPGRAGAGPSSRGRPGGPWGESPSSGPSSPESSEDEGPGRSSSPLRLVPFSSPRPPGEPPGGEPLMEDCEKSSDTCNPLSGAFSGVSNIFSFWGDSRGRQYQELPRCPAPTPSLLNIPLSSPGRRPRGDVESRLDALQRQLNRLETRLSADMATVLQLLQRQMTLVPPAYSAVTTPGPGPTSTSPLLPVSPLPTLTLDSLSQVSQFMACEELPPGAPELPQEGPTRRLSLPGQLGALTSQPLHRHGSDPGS

`O=C(CN1CCCCC1)Nc1cc(Cl)ccc1Cl` was tested. Which AC50 (Escherichia coli) did it give?
The AC50 was 144 µM (active).

How did the AC50 [1] turn out when `N#CC(Cc1ccc(O)c(O)c1)C(=O)N1CCc2ccccc21` (stereo unspecified) was run?
Its AC50 is 15.8 µM (inconclusive).

With `O=C(CCNS(=O)(=O)c1ccc2nc(O)oc2c1)NCc1ccccc1` as the compound, how does the AC50 (CAAX prenyl protease 2) read?
Its AC50 is > 100 µM (inactive).

With `CCOC(=O)C1(CC2CCCCO2)CCN(Cc2ccc(OC)cc2F)CC1` (stereo unspecified) as the compound, how does the EC50 [2] read?
Its EC50 is > 92.5 µM (inactive).

What about the EC50 (Mu-type opioid receptor) of the same compound?
The EC50 was > 92.5 µM (inactive).

And the EC50 [3]?
Its EC50 is > 92.5 µM (inactive).
